The record followed here is PubChem BioAssay (NCI).

Test systems include OVCAR-5 ovarian; UO-31 renal; HS 578T breast; SR leukemia; T-47D breast; K-562 leukemia; IGROV1 ovarian; M14 melanoma; HL-60(TB) leukemia; UACC-257 melanoma.
Assay in all cases: NCI tumour cell line growth inhibition, 48 h

“And” between values parts separate entries of the source, which are not always exact repeats. Equal values may be shown once.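 All cell lines were grown in 96-well plates and treated with compound for 48 hours. Here, GI50 denotes the concentration required for 50% inhibition of growth. TGI: total growth inhibition.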

Turning to `O=c1c2ccccc2sc2cccc(NCCCN3CCN(CCCNc4cccc5sc6ccccc6c(=O)c45)CC3)c12`, the TGI in the test with OVCAR-5 ovarian, in the test on UO-31 renal, with HS 578T breast, with SR leukemia, with T-47D breast and with K-562 leukemia was above 100 µM each time. Moreover, the TGI in the test on IGROV1 ovarian, with M14 melanoma, with HL-60(TB) leukemia and with UACC-257 melanoma was above 100 µM in each case.

With `Cc1nc2ccccc2nc1-c1ccc(N=[N+]([O-])c2ccc(-c3nc4ccccc4nc3C)cc2)cc1`, the TGI in the test on OVCAR-5 ovarian was above 100 µM; in the test on UO-31 renal it was above 100 µM; in the test on HS 578T breast it was above 95.9 µM; with SR leukemia, above 100 µM; with T-47D breast, above 100 µM; in the test with K-562 leukemia it was above 100 µM. Besides, the TGI with IGROV1 ovarian, in the test with M14 melanoma, with HL-60(TB) leukemia and in the test on UACC-257 melanoma was above 100 µM each time.

Regarding `CCN(CC)c1nc(-c2ccc(Cl)cc2Cl)nc2ccccc12`, the GI50 with OVCAR-5 ovarian is 26.1 µM; with UO-31 renal, 24.9 µM; in the test on HS 578T breast, 8.82 µM; in the test on SR leukemia it was 8.68 µM; in the test on T-47D breast, 18.1 µM; in the test with K-562 leukemia, 30.8 µM. For the same molecule, the GI50 is 25.9 µM in the test on IGROV1 ovarian, 18 µM in the test on M14 melanoma, 26.2 µM in the test with HL-60(TB) leukemia and 17.3 µM with UACC-257 melanoma. Moreover, the TGI was above 68.1 µM in the test on OVCAR-5 ovarian; above 90.5 µM in the test with UO-31 renal; 35.1 µM in the test with HS 578T breast; above 53.2 µM with SR leukemia; 49.6 µM in the test on T-47D breast; above 100 µM with K-562 leukemia. Moreover, the TGI with IGROV1 ovarian was above 100 µM; in the test on M14 melanoma, 37.9 µM; in the test on HL-60(TB) leukemia, above 100 µM; with UACC-257 melanoma it was 50.7 µM.

On to `COc1cc(C2c3cc4c(cc3C(O)C(CO)C2CO)OCO4)cc(OC)c1OC` (stereo not given), for which the GI50 is 5.69 µM in the test on OVCAR-5 ovarian; 0.623 µM in the test on HS 578T breast; 0.342 µM with SR leukemia; 0.432 µM with K-562 leukemia; 0.551 µM in the test with IGROV1 ovarian; 0.706 µM in the test with M14 melanoma. Moreover, the GI50 with HL-60(TB) leukemia was 0.322 µM; in the test with UACC-257 melanoma, 0.67 µM. Also, the TGI with OVCAR-5 ovarian was above 100 µM; in the test with UO-31 renal it was above 100 µM; in the test on SR leukemia it was above 48.5 µM; in the test on T-47D breast, above 100 µM; with K-562 leukemia, above 100 µM; in the test with IGROV1 ovarian, above 25.9 µM. The TGI with M14 melanoma and with UACC-257 melanoma was above 100 µM each time.

In the case of `COc1cc(CNCCCN2C(=O)c3ccc4c5c(ccc(c35)C2=O)C(=O)N(CCCNCc2cc(OC)c(OC)c(OC)c2)C4=O)cc(OC)c1OC`, the GI50 in the test with OVCAR-5 ovarian was 0.801 µM; in the test with UO-31 renal, 2.91 µM; with HS 578T breast, 1.2 µM; in the test with SR leukemia it was 0.18 µM; in the test on T-47D breast it was 0.38 µM; with K-562 leukemia it was 0.309 µM. Moreover, the GI50 in the test with IGROV1 ovarian was 0.24 µM; with M14 melanoma, 0.841 µM; in the test with HL-60(TB) leukemia, 0.919 µM; with UACC-257 melanoma, 0.283 µM. Moreover, the TGI in the test on OVCAR-5 ovarian was 2.79 µM; in the test on UO-31 renal, 9.48 µM; with HS 578T breast, 3.76 µM; in the test on SR leukemia, 1.62 µM; in the test with T-47D breast, 1.12 µM; in the test on K-562 leukemia, 2.85 µM. The TGI with IGROV1 ovarian worked out at 1.06 µM; in the test with M14 melanoma, 1.6 µM; in the test with HL-60(TB) leukemia it was 1.97 µM; in the test with UACC-257 melanoma, 0.541 µM.

Regarding `CCOC(=O)C(=Cc1cccc(Cl)c1)C(=O)OCC`, the GI50 with OVCAR-5 ovarian was 1.8 µM; with UO-31 renal it was 1.84 µM; in the test with HS 578T breast, 4.29 µM; in the test with SR leukemia, 1.55 µM; in the test on T-47D breast, 1.78 µM; in the test with K-562 leukemia it was 3.18 µM. For the same molecule, the GI50 is 2.4 µM in the test with IGROV1 ovarian, 2 µM with M14 melanoma, 2.18 µM with HL-60(TB) leukemia and 5.05 µM with UACC-257 melanoma. Further, the TGI in the test with OVCAR-5 ovarian was 3.54 µM; in the test on UO-31 renal it was 4.12 µM; in the test with HS 578T breast it was 29.8 µM; in the test with SR leukemia, above 100 µM; in the test on T-47D breast, 4.26 µM; in the test on K-562 leukemia, above 100 µM. The TGI with IGROV1 ovarian is 7.85 µM; in the test on M14 melanoma, 4.56 µM; with HL-60(TB) leukemia, 5.65 µM; in the test with UACC-257 melanoma it was 18 µM.

Consider `CC(=O)c1cc2c(o1)C(=O)c1ccccc1C2=O`, for which the GI50 in the test on OVCAR-5 ovarian was 0.181 µM and 0.186 µM; with UO-31 renal it was 0.219 µM and 0.217 µM; with HS 578T breast, 0.292 µM and 0.295 µM; with SR leukemia, 0.299 µM and 0.308 µM; with T-47D breast, 1.33 µM and 1.6 µM; in the test on K-562 leukemia, 0.284 µM and 0.311 µM. Besides, the GI50 was 0.644 µM and 0.409 µM with IGROV1 ovarian; 0.169 µM and 0.183 µM with M14 melanoma; 0.241 µM and 0.271 µM in the test on HL-60(TB) leukemia; 0.191 µM and 0.197 µM in the test on UACC-257 melanoma. Also, the TGI in the test with OVCAR-5 ovarian is 0.346 µM and 0.345 µM; in the test with UO-31 renal, 0.57 µM and 0.531 µM; in the test with HS 578T breast, 0.771 µM and 0.806 µM; with SR leukemia it was 5.36 µM; in the test on T-47D breast it was 3.43 µM and 4.06 µM; with K-562 leukemia, 0.795 µM and 1.53 µM. Besides, the TGI with IGROV1 ovarian is 1.63 µM and 1.56 µM; with M14 melanoma it was 0.322 µM and 0.345 µM; in the test on HL-60(TB) leukemia, 0.641 µM and 0.773 µM; in the test with UACC-257 melanoma, 0.37 µM and 0.451 µM.

On to `Nc1nccc2c1ccn2-c1ccc(NC(=O)c2ccc(N3CCOCC3)c(C(F)(F)F)c2)cc1`, for which the GI50 in the test with OVCAR-5 ovarian was 1.64 µM; in the test with UO-31 renal it was 0.573 µM; in the test with HS 578T breast, 0.22 µM; in the test with SR leukemia, 0.684 µM; with T-47D breast it was 2.19 µM; in the test on K-562 leukemia, 0.687 µM. Further, the GI50 in the test with IGROV1 ovarian was 1.56 µM; in the test with M14 melanoma it was 0.622 µM; with HL-60(TB) leukemia, 0.479 µM; in the test on UACC-257 melanoma, 2.15 µM. In addition, the TGI is 20.6 µM with OVCAR-5 ovarian; 4.15 µM in the test with UO-31 renal; 0.88 µM in the test with HS 578T breast; above 100 µM with SR leukemia; 19.2 µM in the test with T-47D breast; above 100 µM in the test on K-562 leukemia. The TGI in the test with IGROV1 ovarian stood at 30.4 µM; in the test on M14 melanoma, 2.54 µM; with UACC-257 melanoma, 8.61 µM.

Turning to `CC(=O)OC12c3ccccc3-c3ccccc3C1C1C(=O)N(C)C(=O)C12Cl` (stereo not given), the TGI in the test with OVCAR-5 ovarian, in the test with UO-31 renal, in the test with HS 578T breast, in the test with SR leukemia, with T-47D breast and in the test on K-562 leukemia was above 10 µM throughout. Also, the TGI with IGROV1 ovarian, in the test on M14 melanoma, in the test with HL-60(TB) leukemia and in the test on UACC-257 melanoma was above 10 µM throughout.
